Literature values as cited in US6482863B2, “Insect repellant formulation deliverable by piezoelectric device” (S. C. Johnson & Son, Inc., priority 2000, dated 2002).

Experiments:
[1] = at 20° C.
[2] = at 25° C.

viscosity of solvent [2]	water solubility	Compound	vapor pressure of solvent [1]
		COCC(C)O (stereo not shown) [Propylene glycol methyl ether]	8.1 mm Hg
1 cp	35 g/100 ml water	COCC(C)OCC(C)OC (stereo not shown) [Dipropylene glycol dimethyl ether]	0.55 mm Hg
